{"source": "paper PMC3425544", "about": "“The S100A10 Subunit of the Annexin A2 Heterotetramer Facilitates L2-Mediated Human Papillomavirus Infection” (PLoS ONE, 2012)", "key": {"[1]": {"tested_on": "surface of HeLa, SiHa and CaSki cells", "conditions": "ref [28], cited from earlier work"}, "S100A10 subunit of A2t": {"tested_on": "S100A10 subunit of A2t", "test": "EPR binding of L2 peptide to S100A10", "procedure": "Recombinant annexin A2 was expressed in BL21(DE3) Escherichia coli cells and purified using reversible Ca^2+-dependent binding to negatively charged phospholipid vesicles followed by size exclusion chromatography. A pET23A vector containing the S100A10 sequence (a gift from Volker Gerke) was expressed in BL21(DE3) cells as previously described. Both proteins were stored at 4°C in 20 mM HEPES buffer at pH 7.4, containing 100 mM NaCl with the addition of 1 mM dithiothreitol. Concentrations of all proteins and peptides, including the A2t complex, were determined using bicinchoninic acid assays (Pierce Thermo Scientific, Rockford, IL) compared to measured absorbance of albumin standards at 562 nm. Purified annexin A2 and S100A10 were combined at a molar ratio of 1∶1 and concentrated to over 8 µg/µl. The mixture was incubated overnight at 4°C, and then loaded onto a superdex 200 10/300 GL (GE Healthcare USA) column equilibrated in the previously mentioned HEPES buffer. The eluted A2t peak was collected and subjected to peptide binding assays.\nThe L2_108–126 peptides used in our EPR studies were synthesized with a cysteine at the N-terminus, and followed by a spacer of 3 physiological amino acids (C-IVS) preceding the canonical L2_108–126 and L2 scrambled sequences (C-IVS-[…] and C-IVS-[…] respectively). Peptides were combined with 8× molar excess paramagnetic label (1-oxyl-2, 2, 5, 5-tetramethyl-Δ3-pyrroline-3-methyl) (R1) methanethiosulfonate (MTSL), (Toronto Research Chemicals, Canada) and left to react overnight at 4°C. Free label was removed by gel filtration (PD10 GE, United Kingdom). All peptides were solubilized into HEPES buffer. For competition assays, the scrambled peptide was non-paramagnetic labeled with an N-acetylated MTSL paramagnetic-label analog (1-acetyl-2,2,5,5- tetramethyl-Δ3-pyrroline-3-methyl) (R1′) at an 8× molar excess to emulate the paramagnetic label on control peptides. Binding interactions were examined by combining paramagnetically-labeled L2 peptide with A2t, BSA, ANXA2, or S100A10 (20 µM, 100 µM, 100 µM, 100 µM, and 100 µM respectively) in 10 µL volumes of the HEPES buffer, confined by glass capillaries, and measured at room temperature over a period of 24 hours using a Bruker EMX X-band EPR spectrometer. For the cysteine blocked S100A10, S100A10 was treated with R1′ and excess label was removed via gel filtration (see above) before the addition of paramagnetic labeled peptides. The experiments were done in triplicate with measurements taken at 12 db, in 5 scan intervals. All spectra were normalized to the same number of scans. To quantify the amount of bound peptide spectra of all tested proteins in combination with the L2_108–126 or ScrL2 peptides were compared to the spectra of L2_108–126 or ScrL2 peptides alone in solution using a spectra analyzing software (EPR 130, University of California, Los Angeles). By subtracting the alone peptide spectra from that of the combined samples we derive the spectra of the bound spectra, and based on double integration, relate this spectra to a concentration of the peptide that bound to the target protein."}, "[2]": {"tested_on": "Bovine Serum Albumin (BSA)", "test": "EPR binding of L2 peptide to BSA (specificity control)", "conditions": "20 µM peptide, 100 µM BSA", "text": "The L2_108–126 peptides used in our EPR studies were synthesized with a cysteine at the N-terminus, and followed by a spacer of 3 physiological amino acids (C-IVS) preceding the canonical L2_108–126 and L2 scrambled sequences (C-IVS-LVEETSFIDAGAPTSVPSI and C-IVS-IESPVSDTALGTPEIFVSA respectively). Peptides were combined with 8× molar excess paramagnetic label (1-oxyl-2, 2, 5, 5-tetramethyl-Δ3-pyrroline-3-methyl) (R1) methanethiosulfonate (MTSL), (Toronto Research Chemicals, Canada) and left to react overnight at 4°C. Free label was removed by gel filtration (PD10 GE, United Kingdom). All peptides were solubilized into HEPES buffer. […] Binding interactions were examined by combining paramagnetically-labeled L2 peptide with A2t, BSA, ANXA2, or S100A10 (20 µM, 100 µM, 100 µM, 100 µM, and 100 µM respectively) in 10 µL volumes of the HEPES buffer, confined by glass capillaries, and measured at room temperature over a period of 24 hours using a Bruker EMX X-band EPR spectrometer. […] To quantify the amount of bound peptide spectra of all tested proteins in combination with the L2_108–126 or ScrL2 peptides were compared to the spectra of L2_108–126 or ScrL2 peptides alone in solution using a spectra analyzing software (EPR 130, University of California, Los Angeles). […]"}}}
{"substance": "C-IVS-LVEETSFIDAGAPTSVPSI [L2_108–126, HPV16 L2 aa 108–126 peptide with N-terminal cysteine and IVS spacer]", "values": [{"measurement": "binding to cell lines", "setting": "[1]; SiHa, CaSki, [29] (b5), [23], [28]", "result": "can bind to the surface of several human cell lines"}, {"measurement": "binding to HeLa cells with substitutions at aa 108–111", "setting": "[1]; aa 108–111 substituted (LVEE to GGDD)", "result": "decrease the binding"}, {"measurement": "interaction with S100A10 subunit", "setting": "S100A10 subunit of A2t; EPR, discussion", "result": "very strong interaction"}, {"measurement": "relative % bound to S100A10", "setting": "S100A10 subunit of A2t; EPR, 20 µM peptide, 100 µM S100A10, mean of three separate experiments", "result": 92.5, "unit": "%"}, {"measurement": "relative % bound to cysteine-blocked S100A10", "setting": "S100A10 subunit of A2t; EPR, S100A10 cysteine-blocked with R1′ (αCys-S100A10), paramagnetic-labeled peptide, mean of three separate experiments", "result": 73.1, "unit": "%"}, {"measurement": "relative % bound to S100A10 in presence of ScrL2", "setting": "S100A10 subunit of A2t; EPR, scrambled peptide 5∶1, mean of three separate experiments", "result": 91.0, "unit": "%"}, {"measurement": "relative binding constant (K), S100A10", "setting": "S100A10 subunit of A2t; from EPR percent bound, association constant", "result": 150000, "unit": "M⁻¹"}, {"measurement": "binding to BSA", "setting": "[2]", "result": "does not bind BSA in a significant manner"}]}
